In patent publication US11535630B2, “Apelin receptor (APJ) agonists and uses thereof” (Research Triangle Institute, priority 2015, dated 2022):

Target: T1, apelin receptor (APJ) (Homo sapiens, UniProt P35414)
T1 sequence (P35414 1-380): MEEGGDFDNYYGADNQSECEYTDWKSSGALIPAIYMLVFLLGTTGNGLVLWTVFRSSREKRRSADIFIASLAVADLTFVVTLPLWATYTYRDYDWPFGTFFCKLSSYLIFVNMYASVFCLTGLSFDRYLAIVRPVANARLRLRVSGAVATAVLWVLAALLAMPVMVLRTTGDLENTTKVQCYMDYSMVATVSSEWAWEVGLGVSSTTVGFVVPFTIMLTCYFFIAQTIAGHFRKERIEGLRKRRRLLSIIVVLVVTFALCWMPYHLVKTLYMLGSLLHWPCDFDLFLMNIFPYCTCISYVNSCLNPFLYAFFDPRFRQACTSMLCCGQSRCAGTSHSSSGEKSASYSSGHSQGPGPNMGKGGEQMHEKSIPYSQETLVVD
Experiment: In vitro apelin agonist activity (methods of Giddings et al., Apelin-13 as positive control)
Type: cell-based
Details: EC50 (nM) Ave, in vitro apelin agonist activity, methods of Giddings et al., Apelin-13 as positive control
Source text: Characterization of the Apelin Agonist Activity of the Compounds
1:39-47, the contents of which are hereby incorporated by reference in its entirety. Using the methods described in Giddings et al. and Apelin-13 as a positive control.

Which EC50 does the source give for COc1cccc(OC)c1-c1cc(C(=O)N[C@@H](CCC2CCCCC2)CC(=O)O)nn1C1CCCCCCC1 [compound 647, (3S)-5-cyclohexyl-3-{[1-cyclooctyl-5-(2,6-dimethoxyphenyl)-1H-pyrazol-3-yl]formamido}pentanoic acid] here?
Its EC50 is > 10000 nM.

Same assay, conditions: in vitro apelin agonist activity, methods of Giddings et al., Apelin-13 as positive control; read-out: EC50 (nM) Ave

Which EC50 does the source give for Cc1cc(C)n(CC[C@@H](CC(=O)NC2CCC2)NC(=O)c2cc(-c3ccccc3C(F)(F)F)n(C3CCCC3)n2)n1 [compound 503, (3S)-N-cyclobutyl-3-({1-cyclopentyl-5-[2-(trifluoromethyl)phenyl]-1H-pyrazol-3-yl}formamido)-5-(3,5-dimethyl-1H-pyrazol-1-yl)pentanamide] here?
Its EC50 is 157 nM.

Which EC50 does the source give for CC1(C)CN(CC[C@@H](CC(=O)O)NC(=O)c2cc(-c3ccccc3C(F)(F)F)n(C3CCCC3)n2)C1 [compound 588, (3S)-3-({1-cyclopentyl-5-[2-(trifluoromethyl)phenyl]-1H-pyrazol-3-yl]formamido)-5-(3,3-dimethylazetidin-1-yl)pentanoic acid] here?
The EC50 was 502 nM.

For O=C(CCNC(=O)c1cc(-c2ccccc2C(F)(F)F)n(C2CCCC2)n1)NCc1ccccc1 [compound 442, N-benzyl-3-({1-cyclopentyl-5-[2-(trifluoromethyl)phenyl]-1H-pyrazol-3-yl}formamido)propanamide], which EC50 is on record?
Its EC50 is > 10000 nM.

Which EC50 does the source give for O=C(O)C[C@H](CCN1CCCC(F)(F)C1)NC(=O)c1cc(-c2ccccc2C(F)(F)F)n(C2CCOCC2)n1 [compound 553, (3S)-5-(3,3-difluoropiperidin-1-yl)-3-{[1-(oxan-4-yl)-5-[2-(trifluoromethyl)phenyl]-1H-pyrazol-3-yl]formamido}pentanoic acid] here?
The EC50 was 1480 nM.

O=C(O)C[C@H](CCN1C[C@@H](F)[C@@H](F)C1)NC(=O)c1cc(-c2ccccc2C(F)(F)F)n(C2CCCC2)n1 [compound 581, (3S)-3-({1-cyclopentyl-5-[2-(trifluoromethyl)phenyl]-1H-pyrazol-3-yl}formamido)-5-[(3R,4S)-3,4-difluoropyrrolidin-1-yl]pentanoic acid] was tested. Which EC50 did it give?
Its EC50 is 215 nM.

CC1CCC(F)(F)CN1CC[C@@H](CC(=O)O)NC(=O)c1cc(-c2ccccc2C(C)(F)F)n(C2CCCC2)n1 (stereo partly drawn) [compound 607, (3S)-3-({1-cyclopentyl-5-[2-(1,1-difluoroethyl)phenyl]-1H-pyrazol-3-yl}formamido)-5-(5,5-difluoro-2-methylpiperidin-1-yl)pentanoic acid] was tested. Which EC50 did it give?
The EC50 was 69 nM.

How did the EC50 turn out when C[C@@H](C[C@@H](CC(=O)O)NC(=O)c1cc(-c2ccccc2C(C)(F)F)n(C2CCCC2)n1)N1CCC(F)(F)C1 [compound 600, (3S,5S)-3-({1-cyclopentyl-5-[2-(1,1-difluoroethyl)phenyl]-1H-pyrazol-3-yl}formamido)-5-(3,3-difluoropyrrolidin-1-yl)hexanoic acid] was run?
Its EC50 is 67 nM.

With O=C(C[C@H](CCN1CCCC(F)(F)C1)NC(=O)c1cc(-c2cnccc2C(F)(F)F)n(C2CCCC2)n1)NC1CCC1 [compound 460, (3S)-N-cyclobutyl-3-(f 1-cyclopentyl-544-(trifluoromethyppyridin-3-yl1-1H-pyrazol-3-yl}formamido)-5-(3,3-difluoropiperidin-1-yl)pentanamide] as the compound, how does the EC50 read?
Its EC50 is 23 nM.

For CC(C)c1ccccc1-c1cc(C(=O)N[C@@H](CCN2CCCCC2)CC(=O)NC2CCC2)nn1C1CCCC1 [compound 397, (3S)-N-cyclobutyl-3-({1-cyclopentyl-5-[2-(propan-2-yl)phenyl]-1H-pyrazol-3-yl}formamido)-5-(piperidin-1-yl)pentanamide], which EC50 is on record?
Its EC50 is 140 nM.

With C[C@@H](C[C@@H](CC(=O)O)NC(=O)c1cc(-c2ccccc2C(F)(F)F)n(C2CCCC2)n1)N1CCCC(F)(F)C1 [compound 576, (3S,5S)-3-({1-cyclopentyl-5-[2-(trifluoromethyl)phenyl]-1H-pyrazol-3-yl}formamido)-5-(3,3-difluoropiperidin-1-yl)hexanoic acid] as the compound, how does the EC50 read?
The EC50 was 1370 nM.

With CN(C(=O)C[C@H](CCN1CCCC(F)(F)C1)NC(=O)c1cc(-c2ccccc2Cl)n(C2CCCC2)n1)c1ncco1 [compound 452, (3S)-3-{[5-(2-chlorophenyl)-1-cyclopentyl-1H-pyrazol-3-yl]formamido}-5-(3,3-difluoropiperidin-1-yl)-N-methyl-N-(1,3-oxazol-2-yl)pentanamide] as the compound, how does the EC50 read?
The EC50 was 70 nM.

C[C@H](C(=O)O)[C@H](CCN1CCCC(F)(F)C1)NC(=O)c1cc(-c2ccccc2C(F)(F)F)n(C2CCCC2)n1 [compound 596, (2S,3S)-3-({1-cyclopentyl-5-[2-(trifluoromethyl)phenyl]-1H-pyrazol-3-yl}formamido)-5-(3,3-difluoropiperidin-1-yl)-2-methylpentanoic acid] was tested. Which EC50 did it give?
Its EC50 is 88 nM.

For COc1cccc(OC)c1-c1cc(C(=O)N[C@@H](CCc2ccccc2)CC(N)=O)nn1C1CCCC1 [compound 392, (3S)-3-{[1-cyclopentyl-5-(2,6-dimethoxyphenyl)-1H-pyrazol-3-yl]formamido}-5-phenylpentanamide], which EC50 is on record?
Its EC50 is > 10000 nM.

With O=C(C[C@H](CCN1CCC(F)(F)CC1)NC(=O)c1cc(-c2ccccc2C(F)(F)F)n(C2CCCC2)n1)NCC1CCCCC1 [compound 440, (3S)-N-(cyclohexylmethyl)-3-({1-cyclopentyl-5-[2-(trifluoromethyl)phenyl]-1H-pyrazol-3-yl]formamido)-5-(4,4-difluoropiperidin-1-yl)pentanamide] as the compound, how does the EC50 read?
Its EC50 is 301 nM.

For O=C(N[C@@H](CCc1ccc(F)cc1)Cc1nnc[nH]1)c1cc(-c2ccccc2C(F)(F)F)n(C2CCCC2)n1 [compound 470, 1-cyclopentyl-N-[(2S)-4-(4-fluorophenyl)-1-(4H-1,2,4-triazol-3-yl)butan-2-yl]-5-[2-(trifluoromethyl)phenyl]-1H-pyrazole-3-carboxamide], which EC50 is on record?
The EC50 was 435 nM.

With O=C(N[C@@H](CC(=O)N1CCCC(F)(F)C1)CS(=O)(=O)NC1CCC1)c1cc(-c2ccccc2C(F)(F)F)n(C2CCCC2)n1 [compound 541, N-[(2S)-1-(cyclobutylsulfamoyl)-4-(3,3-difluoropiperidin-1-yl)-4-oxobutan-2-yl]-1-cyclopentyl-5-[2-(trifluoromethyl)phenyl]-1H-pyrazole-3-carboxamide] as the compound, how does the EC50 read?
The EC50 was 1060 nM.

How did the EC50 turn out when O=C(C[C@H](CCN1CCCCC1)NC(=O)c1cc(-c2ccccc2Cl)n(C2CCCC2)n1)NC1CCC1 [compound 407, (3S)-3-{[5-(2-chlorophenyl)-1-cyclopentyl-1H-pyrazol-3-yl]formamido}-N-cyclobutyl-5-(piperidin-1-yl)pentanamide] was run?
The EC50 was 162 nM.

How did the EC50 turn out when O=C(O)C[C@H](CCN1C[C@H](F)[C@@H](F)C1)NC(=O)c1cc(-c2ccccc2C(F)(F)F)n(C2CCCC2)n1 [compound 629, (3S)-3-({1-cyclopentyl-5-[2-(trifluoromethyl)phenyl]-1H-pyrazol-3-yl}formamido)-5-[(3S,4S)-3,4-difluoropyrrolidin-1-yl]pentanoic acid] was run?
Its EC50 is 77 nM.

Which EC50 does the source give for CCc1ccccc1-c1cc(C(=O)N[C@@H](CCN2CCCC(F)(F)C2)CC(=O)NC2CCC2)nn1C1CCCC1 [compound 412, (3S)-N-cyclobutyl-3-{[1-cyclopentyl-5-(2-ethylphenyl)-1H-pyrazol-3-yl]formamido}-5-(3,3-difluoropiperidin-1-yl)pentanamide] here?
Its EC50 is 5 nM.

How did the EC50 turn out when COc1cccc(OC)c1-c1cc(C(=O)N[C@@H](CCN2C(C)CCCC2C)CC(=O)NC2CCC2)nn1C1CCCC1 (stereo partly drawn) [compound 329, (3S)-N-cyclobutyl-3-{[1-cyclopentyl-5-(2,6-dimethoxyphenyl)-1H-pyrazol-3-yl]formamido}-5-(2,6-dimethylpiperidin-1-yl)pentanamide] was run?
Its EC50 is 170 nM.
